Where two headings read alike, the source gives them in different places.

Assay [1] deals with MV-4-11 cells (human acute myelogenous leukemia cell line carrying MLL-AF4 mutation). In words: Cell proliferation assay, MV-4-11 (CellTiter-Glo). In kind it is cell-based. The method, boiled down: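 MV-4-11 cells (3000/well, IMDM with 10% HIFBS and 50 μM β-mercaptoethanol) exposed to compound at 1.100–0.001 μM final, 0.1% DMSO, for 3 days at 37°C. Viability read by CellTiter-Glo luminescence on day 0 and day 3, normalised to day-0 and untreated wells.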

Assay [2] deals with Recombinant human Menin protein (2-610) / MLL polypeptide binding (Homo sapiens (Human), UniProt O00255). Description: Menin and MLL protein binding at a molecular level (fluorescence polarization method). Conditions: inhibition of Menin / MLL polypeptide binding. The method, boiled down: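 Binding of recombinant human Menin (2-610) to 6-FAM-labelled MLL peptide measured by fluorescence polarization (ex 480/em 535 nm) in Tris/NaCl/TCEP buffer, pH 7.5, 2% DMSO. Compound preincubated with Menin 30 min at room temperature, then peptide added for 30 min in the dark. Tested at 1.000 down to 0.0005 μM final.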
(In general: Fluorescence polarisation rises when a labelled molecule tumbles more slowly, as on binding a larger partner.)

[3] abbreviates: Homo sapiens, MV4-11, 72 h, MV-4-11 cells, 3 days treatment, CellTiter-Glo, read-out: GI50.

Chain of Recombinant human Menin protein (2-610) / MLL polypeptide binding (O00255 2-610): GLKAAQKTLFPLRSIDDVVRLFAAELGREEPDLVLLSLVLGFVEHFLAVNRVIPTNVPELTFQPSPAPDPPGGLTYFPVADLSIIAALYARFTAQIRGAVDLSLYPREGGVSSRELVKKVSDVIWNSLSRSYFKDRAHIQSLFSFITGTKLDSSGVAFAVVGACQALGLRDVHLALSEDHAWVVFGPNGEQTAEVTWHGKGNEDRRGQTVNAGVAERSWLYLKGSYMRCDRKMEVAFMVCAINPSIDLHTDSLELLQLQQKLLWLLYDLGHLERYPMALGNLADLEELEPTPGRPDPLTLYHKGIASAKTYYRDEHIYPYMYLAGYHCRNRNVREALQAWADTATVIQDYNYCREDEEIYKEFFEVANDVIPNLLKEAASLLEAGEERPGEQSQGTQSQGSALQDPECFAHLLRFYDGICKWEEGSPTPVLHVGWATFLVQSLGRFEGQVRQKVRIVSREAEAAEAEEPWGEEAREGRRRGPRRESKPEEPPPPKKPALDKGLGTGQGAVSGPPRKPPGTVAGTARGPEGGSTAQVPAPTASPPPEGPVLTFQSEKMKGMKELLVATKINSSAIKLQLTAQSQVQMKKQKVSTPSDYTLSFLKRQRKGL

`COc1cc(N2CCC(CN3CCC4(CC3)CN(c3ncnnc3Oc3ccc(F)cc3C(=O)NC(C)C)C4)CC2)nnc1OC` [Compound 177, 2-((5-(7-((1-(5,6-dimethoxypyridazin-3-yl)piperidin-4-yl)methyl)-2,7-diazaspiro[3.5]nonan-2-yl)-1,2,4-triazin-6-yl)oxy)-5-fluoro-N-isopropylbenzamide] displayed a GI50 in assay [1] (Homo sapiens, MV4-11, 72 h) of 92 nM. In assay [2], the half-inhibitory concentration (IC50) worked out at 47.3 nM.
As for `CCNC(=O)c1cc(F)ccc1Oc1nncnc1N1CC2(CCN(CC3CCN(c4cc(OC)c(OC)nn4)CC3)CC2)C1` [Compound 178, 2-((5-(7-((1-(5,6-dimethoxypyridazin-3-yl)piperidin-4-yl)methyl)-2,7-diazaspiro[3.5]nonan-2-yl)-1,2,4-triazin-6-yl)oxy)-N-ethyl-5-fluorobenzamide], in assay [1] (setting [3]), the GI50 was determined as 126 nM. Moreover, the IC50 in assay [2] was 124 nM.
`CCNC(=O)c1cc(F)ccc1Oc1nncnc1N1CC2(CCN(CC3CCN(c4cc(OC)c(OC)nn4)CC3)CC2)C1` [Compound 179, (Z)-2-((5-(7-((1-(5,6-dimethoxypyridazin-3-yl)piperidin-4-yl)methyl)-2,7-diazaspiro[3.5]nonan-2-yl)-1,2,4-triazin-6-yl)oxy)-N-ethyl-5-fluorobenzimidic acid]: the GI50 in assay [1] (MV-4-11 cells, 3 days treatment, CellTiter-Glo, read-out: GI50) was 155 nM. The half-inhibitory concentration (IC50) in assay [2] stood at 560 nM.
Turning to `C=CC(=O)Nc1ccc(N2CC3(CCC(CN4CCC5(CC4)CN(c4ncnnc4Oc4ccc(F)cc4C(=O)N(CC)C(C)C)C5)CC3)C2)cc1` [Compound 180], the GI50 in assay [1] (setting [3]) was 10 nM. Besides, the IC50 in assay [2] was 3.9 nM.
Taken in the same sequence, the figures for `C=CC(=O)Nc1cccc(N2CC3(CCC(CN4CCC5(CC4)CN(c4ncnnc4Oc4ccc(F)cc4C(=O)N(CC)C(C)C)C5)CC3)C2)c1` [Compound 181] were 7 nM and 25.5 nM.
Taken in the same sequence, the figures for `C=CC(=O)N1CCC(c2ccc(CN3CCC4(CC3)CN(c3ncnnc3Oc3ccc(F)cc3C(=O)N(CC)C(C)C)C4)cc2)CC1` [Compound 182] were 430 nM and above 1000 nM.
Taken in the same sequence, the figures for `C=CC(=O)Nc1cccc(N2CCC(CN3CCC4(CC3)CN(c3ncnnc3Oc3ccc(F)cc3C(=O)N(CC)C(C)C)C4)CC2)c1` [Compound 183] were 2 nM and 4 nM.
Regarding `COc1cc(N2CCC(CN3CCC4(CC3)CN(c3ncnnc3Oc3ccc(F)cc3C(=O)O)C4)CC2)nnc1OC` [Compound 184, 2-((5-(7-((1-(5,6-dimethoxypyridazin-3-yl)piperidin-4-yl)methyl)-2,7-diazaspiro[3.5]nonan-2-yl)-1,2,4-triazin-6-yl)oxy)-5-fluorobenzoic acid], the GI50 in assay [1] (setting [3]) is above 1100 nM. In addition, the concentration for half-maximal inhibition (IC50) in assay [2] was above 100 nM.

One may read the GI50 as the concentration giving 50% growth inhibition. By IC50 is commonly meant the concentration at which inhibition is half-maximal.

(Values after patent US20260055108A1, “TRIAZINE COMPOUNDS AND USES THEREOF” (HUTCHMED LIMITED, priority 2022, published 2026).)
